Data reported in patent US10517889B2, “Modulators of SMAD7 expression” (Ionis Pharmaceuticals, Inc., priority 2017, dated 2019).
Strand notation (5' to 3'): a small letter for the sugar, then the base; units joined by * are phosphorothioate-linked, units joined directly phosphodiester-linked; [ ] holds rarer units or linkages, { } end groups; capitals alone tell only the bases. k = constrained ethyl (cEt); [5mC] = 5-methylcytosine; d = 2'-deoxy (DNA)

System: human SMAD7 mRNA
Test: Antisense inhibition of human SMAD7 mRNA expression in Hep3B cells by 3-10-3 cEt gapmers, 10,000 nM, electroporation (Example 2)
Assay type: cell-based
Conditions: Hep3B cells, approximately 24 hours; for % inhibition of SMAD7 mRNA expression: electroporation, 10,000 nM antisense oligonucleotide, RTS5062, relative to untreated control cells; for % Inhibition: electroporation with 10,000 nM antisense oligonucleotide, RTS5062, percent inhibition of SMAD7 mRNA relative to untreated control cells
In short: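 Percent inhibition of SMAD7 mRNA, relative to untreated cells, after ~24 h exposure of electroporated Hep3B cells to 10,000 nM cEt gapmer; levels by qRT-PCR, corrected for total RNA.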

Substance	% inhibition of SMAD7 mRNA expression [%]	% Inhibition [%]
799720 (antisense kA*k[5mC]*kA*d[5mC]*dA*d[5mC]*dA*dG*d[5mC]*dA*dG*dA*dA*kG*kG*k[5mC]) [compound 799720]	40	
799721 (antisense kG*kT*kA*dA*d[5mC]*dA*d[5mC]*dA*d[5mC]*dA*dG*d[5mC]*dA*kG*kA*kA) [compound 799721]	42	
799723 (antisense kA*kG*k[5mC]*d[5mC]*dA*dA*d[5mC]*d[5mC]*d[5mC]*dT*dG*dG*d[5mC]*kA*k[5mC]*k[5mC]) [compound 799723]		0
799724 (antisense kA*kA*k[5mC]*dT*dT*dG*dG*dG*d[5mC]*dA*dA*dG*dG*kA*k[5mC]*kA) [compound 799724]		24
799725 (antisense kG*kG*k[5mC]*d[5mC]*dA*d[5mC]*dT*dG*d[5mC]*dA*dG*d[5mC]*d[5mC]*k[5mC]*kT*kA) [compound 799725]		0
799726 (antisense kG*kT*kA*dT*d[5mC]*d[5mC]*dT*dT*dT*d[5mC]*dA*d[5mC]*dG*kA*kG*kG) [compound 799726]		49
799727 (antisense kT*kG*kA*d[5mC]*dA*dG*dT*dA*dG*dG*d[5mC]*dA*dG*kG*k[5mC]*kA) [compound 799727]		22
799728 (antisense k[5mC]*kG*kG*dA*dG*dA*dG*dG*dA*dA*dG*d[5mC]*d[5mC]*kT*k[5mC]*kT) [compound 799728]		37
799729 (antisense kT*kA*kT*d[5mC]*dT*dT*d[5mC]*d[5mC]*d[5mC]*dG*d[5mC]*dT*dG*kA*kA*kA) [compound 799729]		52
799730 (antisense kT*kA*kA*dA*dT*dT*dG*dA*dG*dA*dA*d[5mC]*dT*kG*kT*kG) [compound 799730]		60
799731 (antisense k[5mC]*kT*kT*dT*d[5mC]*dT*dT*dG*dG*dT*dG*dT*dG*kT*kT*kA) [compound 799731]	37	
799732 (antisense kG*kG*kG*dA*dT*d[5mC]*dA*dG*dG*dT*dG*dA*dG*kT*kG*kT) [compound 799732]	48	
799733 (antisense kG*kT*kT*dT*dA*dG*dG*dT*dA*dG*dA*dG*dT*kG*kG*k[5mC]) [compound 799733]	27	
799735 (antisense kT*k[5mC]*k[5mC]*dA*d[5mC]*dG*dG*dG*dA*dG*dT*dG*dG*kA*kA*kG) [compound 799735]	0	
799736 (antisense kT*kT*k[5mC]*dT*dA*d[5mC]*dA*d[5mC]*d[5mC]*dT*dT*dT*dT*kA*kA*kG) [compound 799736]	56	
799737 (antisense k[5mC]*kT*kT*dA*dG*dA*dG*dT*dA*dT*dA*dA*dA*kT*kA*k[5mC]) [compound 799737]	5	
799738 (antisense kT*k[5mC]*kA*dA*dA*dA*dA*dA*dT*dG*dT*d[5mC]*d[5mC]*k[5mC]*k[5mC]*kA) [compound 799738]	50	
799739 (antisense k[5mC]*kA*k[5mC]*d[5mC]*d[5mC]*d[5mC]*dT*dA*dT*d[5mC]*dA*dA*dA*kA*kA*kA) [compound 799739]	0	
799740 (antisense kT*kT*kA*dA*dA*dT*dA*dA*d[5mC]*dT*dG*dT*d[5mC]*k[5mC]*kT*k[5mC]) [compound 799740]	48	
799741 (antisense kA*kG*kT*dT*dA*dT*d[5mC]*dA*d[5mC]*d[5mC]*d[5mC]*dT*dG*kT*kT*kT) [compound 799741]		32
799742 (antisense kA*kT*kA*dT*dT*dT*d[5mC]*d[5mC]*dT*dG*dT*dT*dA*kA*k[5mC]*kT) [compound 799742]		23
799744 (antisense kA*kA*kA*dG*dA*dA*dA*dA*dT*dG*dG*d[5mC]*d[5mC]*kT*kA*k[5mC]) [compound 799744]		1
799745 (antisense kG*kG*k[5mC]*dA*dG*dT*dT*dA*dA*d[5mC]*dA*dT*dT*kT*k[5mC]*kA) [compound 799745]		43
799746 (antisense kA*kA*kT*dG*dG*dG*dA*dA*dA*dT*dA*dA*dG*kG*k[5mC]*kG) [compound 799746]		59
799747 (antisense kA*kA*kA*dT*dG*dG*dG*dA*dA*dA*dT*dA*dA*kG*kG*k[5mC]) [compound 799747]		43
799748 (antisense kG*k[5mC]*kT*dG*dA*dA*dA*dA*dA*dG*dT*d[5mC]*dA*kT*kG*kA) [compound 799748]		51
799749 (antisense kT*kG*k[5mC]*dT*dT*dG*dG*d[5mC]*d[5mC]*dT*dT*dA*d[5mC]*k[5mC]*kA*kT) [compound 799749]		17

Substance	% inhibition of SMAD7 mRNA expression [%]	% Inhibition [%]
799750 (antisense kA*kG*k[5mC]*d[5mC]*dA*dA*dG*dA*dG*d[5mC]*dT*dG*d[5mC]*kT*kT*kG) [compound 799750]		0
799752 (antisense kT*kT*kA*dA*dA*dA*d[5mC]*dT*dG*dA*dG*d[5mC]*dT*kA*kA*kT) [compound 799752]	0	
799754 (antisense kG*kG*k[5mC]*dT*dA*dA*dG*dT*dG*d[5mC]*d[5mC]*dA*dG*kG*kT*kG) [compound 799754]	0	
799756 (antisense k[5mC]*kA*kG*dG*dG*d[5mC]*dA*dG*d[5mC]*dT*d[5mC]*d[5mC]*dG*kA*kG*kA) [compound 799756]	44	
799757 (antisense k[5mC]*k[5mC]*kG*dT*dT*dA*d[5mC]*dT*dG*dG*dA*d[5mC]*dA*k[5mC]*kA*kG) [compound 799757]	41	
799758 (antisense k[5mC]*kA*k[5mC]*d[5mC]*dG*dT*dT*dA*d[5mC]*dT*dG*dG*dA*k[5mC]*kA*k[5mC]) [compound 799758]	57	
799760 (antisense kT*kT*k[5mC]*dT*dA*dG*dG*dT*dG*dA*dA*d[5mC]*d[5mC]*kA*kT*kA) [compound 799760]	58	
799761 (antisense kT*kG*kT*d[5mC]*dA*dT*dT*dA*dG*dA*dA*d[5mC]*dA*kA*kT*kG) [compound 799761]		35
799762 (antisense kG*kT*k[5mC]*d[5mC]*dT*dA*dA*dA*dG*dA*d[5mC]*dG*dG*k[5mC]*kT*k[5mC]) [compound 799762]		21
799763 (antisense kT*kG*kT*d[5mC]*d[5mC]*dT*dA*dA*dA*dG*dA*d[5mC]*dG*kG*k[5mC]*kT) [compound 799763]		50
799764 (antisense kA*k[5mC]*kG*d[5mC]*dT*dA*dA*dG*dG*dA*dA*dA*dA*kA*kG*k[5mC]) [compound 799764]		19
799765 (antisense kA*kA*kG*d[5mC]*dA*d[5mC]*dG*d[5mC]*dT*dA*dA*dG*dG*kA*kA*kA) [compound 799765]		23
799766 (kA*kA*kA*d[5mC]*dA*dA*dA*dG*d[5mC]*dA*d[5mC]*dG*d[5mC]*kT*kA*kA; antisense) [compound 799766]		35
799767 (kT*k[5mC]*kT*dG*dT*dT*dT*dG*dG*dA*d[5mC]*dA*dA*kG*kT*kT; antisense) [compound 799767]		47
799768 (k[5mC]*kA*k[5mC]*d[5mC]*dA*dA*d[5mC]*d[5mC]*dT*d[5mC]*dT*dG*dT*kG*kG*kG; antisense) [compound 799768]		0
799769 (k[5mC]*k[5mC]*kA*d[5mC]*d[5mC]*dA*dA*d[5mC]*d[5mC]*dT*d[5mC]*dT*dG*kT*kG*kG; antisense) [compound 799769]		0
799770 (kG*kT*kT*dT*d[5mC]*d[5mC]*dA*dA*dG*dG*d[5mC]*d[5mC]*dG*kG*k[5mC]*kG; antisense) [compound 799770]		50
799771 (kG*k[5mC]*kA*dT*dA*dT*dG*d[5mC]*d[5mC]*dA*d[5mC]*dT*dG*kA*kG*kA; antisense) [compound 799771]	0	
799772 (k[5mC]*kG*k[5mC]*d[5mC]*dG*d[5mC]*dG*dG*d[5mC]*dA*dT*dA*dT*kG*k[5mC]*k[5mC]; antisense) [compound 799772]	30	
799773 (k[5mC]*kG*k[5mC]*dT*dA*dG*dG*dT*d[5mC]*dA*d[5mC]*dA*d[5mC]*kT*k[5mC]*kA; antisense) [compound 799773]	43	
799774 (kG*k[5mC]*k[5mC]*d[5mC]*dT*dG*dT*dT*d[5mC]*dT*dG*d[5mC]*dG*k[5mC]*kT*kA; antisense) [compound 799774]	0	
799775 (kA*k[5mC]*kA*d[5mC]*dA*dA*dG*dA*dG*dG*dG*dA*dA*kG*k[5mC]*k[5mC]; antisense) [compound 799775]	22	
799776 (k[5mC]*kA*kG*dA*dA*dG*dG*dA*d[5mC]*d[5mC]*dA*dA*dG*kT*k[5mC]*k[5mC]; antisense) [compound 799776]	11	
799777 (kA*kG*kT*d[5mC]*dA*dG*d[5mC]*d[5mC]*dA*dG*dA*dA*dG*kG*kA*k[5mC]; antisense) [compound 799777]	34	
799778 (kG*k[5mC]*kA*d[5mC]*dA*d[5mC]*d[5mC]*dT*dT*d[5mC]*d[5mC]*dA*dA*kG*k[5mC]*kA; antisense) [compound 799778]	10	
799779 (kT*kA*kA*dA*d[5mC]*dA*dA*dA*d[5mC]*d[5mC]*dA*d[5mC]*dA*kG*kG*kG; antisense) [compound 799779]	19	
